Test results: patent publication US7767798B2, “Loganin analogues and a process for the preparation thereof” (priority 2005, dated 2010)
Converted amounts (≈) assume the structure as drawn. Like-named read-outs stand apart in the source and are kept apart here.

Assays:
[1] = tested on: Suspension Colon (COLO-320) cancer cell line; assay: MTT cytotoxicity assay, COLO-320; type: cell-based, human; conditions: for IC50: Homo sapiens; for times higher activity than vinblastine: COLO-320
Experimental: (§1) Cytotoxicity testing In-vitro was done by the method of Woerdenberg et al^17. 2×10^3 cells/well were incubated in the 5% CO2, 95% atmosphere and 37° C. in CO2 incubator for 24 h to enable them to adhere properly to the 96 well polysterene microplate (Grenier, Germany). Test compounds dissolved in 100% DMSO (Merck, Germany) in at least five doses were added and left for four hour after which the compound plus media was replaced with fresh media and the cell were incubated for another 48 h in the CO2 incubator at 37° C. […] Then, 10 μL from 5 mg/ml stock of MTT [3-(4,5-dimethylthiazol-2-yl)-2,5-diphenyltetrazolium bromide; Sigma M 2128] was added, and plate were incubated at 37° C. for 4 h. 100 μL of dimethylsulfoxide (DMSO, Merck, Germany) were added to all wells and mixed thoroughly to dissolve the dark blue crystal. After a few minute at room temperature to ensure that all crystal were dissolve, the plate were read on a Spectra Max 190 Microplate Elisa Reader (Molecular Devices Inc., U.S.A), at 570 nm. Plate were normally read within 1 h of adding the DMSO. The experiment was done in triplicate and the inhibitory concentration (IC) values were calculated as; % INHIBITION=[1−OD (570 nm) of sample well/OD (570 nm) of control well]×100. IC50 is the concentration μg/mL required for 50% inhibition of cell growth as compared to that of untreated control.

[2] = tested on: breast (MCF-7) cancer cell line; assay: MTT cytotoxicity assay, MCF-7; type: cell-based, human; conditions: for IC50: Homo sapiens
Experimental: as §1

[3] = tested on: Adherent colon (CaCo2) cancer cell line; assay: MTT cytotoxicity assay, CaCo2; type: cell-based, human; conditions: for IC50: Homo sapiens
Experimental: as §1

[4] = tested on: Liver (WRL) cancer cell line; assay: MTT cytotoxicity assay, WRL; type: cell-based, human; conditions: for IC50: Homo sapiens, read-out: WRL IC50
Experimental: as §1

[5] = tested on: human cancer cell lines (MCF-7, PA-1, WRL, COLO-320, CaCo2); assay: MTT cytotoxicity assay, summary over the tested human cancer cell lines; conditions: for IC50: Homo sapiens; for Dosage range IC50: range of IC50 over the tested cell lines (Table 1)
Experimental: as §1

[6] = tested on: Ovary (PA-1) cancer cell line; assay: MTT cytotoxicity assay, PA-1; type: cell-based, human; conditions: for IC50: Homo sapiens, read-out: PA-1 IC50
Experimental: as §1

[7] = tested human cancer cell lines, comparison with loganin, compound 4 or a neighbouring analogue
[8] = MTT assay, COLO-320 suspension colon cancer cells
[9] = MTT assay, MCF-7 breast cancer cells
[10] = MTT assay, CaCo2 adherent colon cancer cells
[11] = MTT assay, WRL liver cancer cells
[12] = MTT assay, PA-1 ovary cancer cells

COC(=O)C1=CO[C@@H](O[C@@H]2O[C@H](CO)[C@@H](O)[C@H](O)[C@H]2O)[C@@H]2[C@@H](C)[C@@H](O)C[C@H]12 [Compound 1, loganin]
IC50 ([1]; COLO 320, read-out: COLO-320 IC50): 1 µg/mL (≈ 2.56 µM) | IC50 ([2]; MCF7, read-out: MCF-7 IC50): 4.85 µg/mL (≈ 12.4 µM) | IC50 ([3]; Caco-2, read-out: CaCo2 IC50): 1.28 µg/mL (≈ 3.28 µM) | IC50 [4]: 1.86 µg/mL (≈ 4.76 µM) | IC50 ([5]; read-out: Dosage range IC50): 1 to 5 µg/mL (≈ 2.56 to 12.8 µM) | IC50 ([5]; read-out: concentration/dose used in vitro MTT assay for IC50, range): 1 to 5 µg/mL (≈ 2.56 to 12.8 µM) | cytotoxic activity in words [5, 7]: significant cytotoxic activity | IC50 [6]: 1.45 µg/mL (≈ 3.71 µM)

COC(=O)C1=CO[C@@H](O[C@@H]2O[C@H](COC(c3ccccc3)(c3ccccc3)c3ccccc3)[C@@H](O)[C@H](O)[C@H]2O)[C@@H]2[C@@H](C)[C@@H](O)C[C@H]12 [Compound 2, 6′-O-trityl loganin]
COLO-320 IC50 [1, 8]: 0.25 µg/mL | MCF-7 IC50 [2, 9]: 1.00 µg/mL | CaCo2 IC50 [3, 10]: 0.56 µg/mL | WRL IC50 [4, 11]: 1.86 µg/mL | cytotoxic activity in words [5]: enhanced cytotoxic activity | Dosage range IC50 [5]: 0.25 to 2.0 µg/mL | PA-1 IC50 [6, 12]: 0.65 µg/mL

COC(=O)C1=COC(O[C@@H]2O[C@H](COC(c3ccccc3)(c3ccccc3)c3ccccc3)[C@@H](OC(C)=O)[C@H](OC(C)=O)[C@H]2OC(C)=O)C2C1CC(OC(C)=O)C2C (stereo partly drawn) [Compound 3, 2′,3′,4′,7-tetra-O-acetyl-6′-O-trityl loganin]
COLO-320 IC50 [1, 8]: 0.82 µg/mL | MCF-7 IC50 [2, 9]: 1.20 µg/mL | CaCo2 IC50 [3, 10]: 3.45 µg/mL | WRL IC50 [4, 11]: 2.44 µg/mL | Dosage range IC50 [5]: 0.80 to 3.5 µg/mL | cytotoxic activity in words [5, 7]: enhanced cytotoxic activity | PA-1 IC50 [6, 12]: 1.20 µg/mL

COC(=O)C1=COC(O[C@@H]2O[C@H](CO)[C@@H](OC(C)=O)[C@H](OC(C)=O)[C@H]2OC(C)=O)C2C1CC(OC(C)=O)C2C (stereo partly drawn) [Compound 4, 2′,3′,4′,7-tetra-O-acetyl loganin]
cytotoxic activity in words [5, 7]: abolished cytotoxicity

CCC(=O)OC[C@H]1O[C@@H](OC2OC=C(C(=O)OC)C3CC(OC(C)=O)C(C)C23)[C@H](OC(C)=O)[C@@H](OC(C)=O)[C@@H]1OC(C)=O (stereo partly drawn) [Compound 5, 2′,3′,4′,7-Tetra-O-acetyl-6′-O-propionylloganin]
COLO-320 IC50 [1, 8]: 0.85 µg/mL | MCF-7 IC50 [2, 9]: 1.88 µg/mL | CaCo2 IC50 [3, 10]: 2.85 µg/mL | WRL IC50 [4, 11]: 2.65 µg/mL | concentration/dose used in vitro MTT assay for IC50, range ([5]; MCF-7, PA-1, WRL, COLO-320 and CaCo-2): 0.80 to 3.0 µg/mL | Dosage range IC50 [5]: 0.80 to 3.0 µg/mL | PA-1 IC50 [6, 12]: 1.24 µg/mL

CCCCCCCCCCCC(=O)OC[C@H]1O[C@@H](OC2OC=C(C(=O)OC)C3CC(OC(C)=O)C(C)C23)[C@H](OC(C)=O)[C@@H](OC(C)=O)[C@@H]1OC(C)=O (stereo partly drawn) [Compound 6, 2′,3′,4′,7-Tetra-O-acetyl-6′-O-lauroylloganin]
times higher activity than vinblastine [1]: 13 times | COLO-320 IC50 [1, 8]: 0.04 µg/mL | MCF-7 IC50 [2, 9]: 0.24 µg/mL | CaCo2 IC50 [3, 10]: 0.42 µg/mL | WRL IC50 [4, 11]: 0.85 µg/mL | Dosage range IC50 [5]: 0.04 to 0.85 µg/mL | PA-1 IC50 [6, 12]: 0.15 µg/mL

CCCCCCCCCCCCCC(=O)OC[C@H]1O[C@@H](OC2OC=C(C(=O)OC)C3CC(OC(C)=O)C(C)C23)[C@H](OC(C)=O)[C@@H](OC(C)=O)[C@@H]1OC(C)=O (stereo partly drawn) [Compound 7, 2′,3′,4′,7-Tetra-O-acetyl-6′-O-myristoyl loganin]
COLO-320 IC50 [1, 8]: 30.00 µg/mL | MCF-7 IC50 [2, 9]: 24.60 µg/mL | WRL IC50 [4, 11]: 58.50 µg/mL | Dosage range IC50 [5]: 6.5 to 59.0 µg/mL | PA-1 IC50 [6, 12]: 6.5 µg/mL

C=CC(=O)OC[C@H]1O[C@@H](OC2OC=C(C(=O)OC)C3CC(OC(C)=O)C(C)C23)[C@H](OC(C)=O)[C@@H](OC(C)=O)[C@@H]1OC(C)=O (stereo partly drawn) [Compound 9, 2′,3′,4′,7-Tetra-O-acetyl-6′-O-acryloyl loganin]
cytotoxic activity in words [5, 7]: totally abolished the activity

COC(=O)C1=COC(O[C@@H]2O[C@H](COC(=O)C=C(C)C)[C@@H](OC(C)=O)[C@H](OC(C)=O)[C@H]2OC(C)=O)C2C1CC(OC(C)=O)C2C (stereo partly drawn) [Compound 10, 2′,3′,4′,7-Tetra-O-acetyl-6′-O-3″,3″-dimethyl acryloylloganin]
COLO-320 IC50 [1, 8]: 0.08 µg/mL | MCF-7 IC50 [2, 9]: 1.00 µg/mL | CaCo2 IC50 [3, 10]: 0.80 µg/mL | WRL IC50 [4, 11]: 1.20 µg/mL | Dosage range IC50 [5]: 0.08 to 1.20 µg/mL | cytotoxic activity in words [5, 7]: significant enhancement of anticancer activity | PA-1 IC50 [6, 12]: 0.65 µg/mL

COC(=O)C1=COC(O[C@@H]2O[C@H](COC(=O)c3cc(OC)c(OC)c(OC)c3)[C@@H](OC(C)=O)[C@H](OC(C)=O)[C@H]2OC(C)=O)C2C1CC(OC(C)=O)C2C (stereo partly drawn) [Compound 11, 2′,3′,4′,7-Tetra-O-acetyl-6′-O-3,4,5-trimethoxy benzoyl loganin]
times higher activity than vinblastine [1]: 13 times | COLO-320 IC50 [1, 8]: 0.04 µg/mL | MCF-7 IC50 [2, 9]: 0.25 µg/mL | times higher activity than vinblastine ([3]; CaCO2): 8 times | CaCo2 IC50 [3, 10]: 0.06 µg/mL | WRL IC50 [4, 11]: 0.54 µg/mL | Dosage range IC50 [5]: 0.044 to 3.54 µg/mL | cytotoxic activity in words [5, 7]: significant enhancement in the cytotoxicity | PA-1 IC50 [6, 12]: 0.10 µg/mL

COC(=O)C1=COC(O[C@@H]2O[C@H](COC(=O)c3cccc([N+](=O)[O-])c3)[C@@H](OC(C)=O)[C@H](OC(C)=O)[C@H]2OC(C)=O)C2C1CC(OC(C)=O)C2C (stereo partly drawn) [Compound 12, 2′,3′,4′,7-Tetra-O-acetyl-6′-O-(3′″)-nitrobenzoyl loganin]
COLO-320 IC50 [1, 8]: 0.44 µg/mL | MCF-7 IC50 [2, 9]: 1.25 µg/mL | CaCo2 IC50 [3, 10]: 1.00 µg/mL | WRL IC50 [4, 11]: 3.20 µg/mL | Dosage range IC50 [5]: 0.44 to 3.20 µg/mL | cytotoxic activity in words [5, 7]: slightly decreased the activity | PA-1 IC50 [6, 12]: 0.85 µg/mL

CC[C@]1(O)C[C@@H]2CN(CCc3c([nH]c4ccccc34)[C@@](C(=O)OC)(c3cc4c(cc3OC)N(C)[C@H]3[C@@](O)(C(=O)OC)[C@H](OC(C)=O)[C@]5(CC)C=CCN6CC[C@]43[C@@H]65)C2)C1 [Vinblastine, vinblastine, reference compound]
IC50 ([1]; MTT assay, COLO-320 suspension colon cancer cells, read-out: COLO-320 IC50): 0.52 µg/mL (≈ 0.641 µM) | IC50 ([2]; MCF7, MTT assay, MCF-7 breast cancer cells, read-out: MCF-7 IC50): 0.02 µg/mL (≈ 0.0247 µM) | IC50 ([3]; Caco-2, MTT assay, CaCo2 adherent colon cancer cells, read-out: CaCo2 IC50): 0.46 µg/mL (≈ 0.567 µM) | IC50 [4, 11]: 1.45 µg/mL (≈ 1.79 µM) | IC50 ([5]; read-out: Dosage range IC50): 0.02 to 1.45 µg/mL (≈ 0.0247 to 1.79 µM) | IC50 [6, 12]: 0.025 µg/mL (≈ 0.0308 µM)
